Assay [1] deals with T1, GSK3b (GST-full length GSK3b) (Homo sapiens, UniProt P49841).
T1 construct: GST-full length GSK3b: [SignalChem G08-9G]; purchased SignalChem G08-9G
Put plainly: GSK3b TR-FRET kinase inhibition assay. The format is biochemical. An outline of the steps: (§1)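 GST-tagged full-length human kinase (1 nM), pre-incubated 30 min with compound, then reacted 100 min at ambient temperature at pH 7.5 with 200 nM biotinylated phospho-S645 glycogen synthase 631–650 peptide and ATP at 2 μM–1 mM. After EDTA quench, Tb-pSer641 antibody/streptavidin-d2 TR-FRET 665/615 ratio fitted for IC50.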
For orientation: In TR-FRET formats the signal depends on donor and acceptor labels being close together.

The target in assay [2] is T2, GSK3a (GST-full length GSK3a) (Homo sapiens, UniProt P49840).
T2 construct: GST-full length GSK3a [SignalChem G08-10G]; purchased SignalChem G08-10G
Put plainly: GSK3a TR-FRET kinase inhibition assay. The format is biochemical. An outline of the steps: as §1

The mark [3] stands for this setting: 1 mM ATP, Table 5, read-out: GSK3β TR-FRET 1 mM ATP Average IC50.
[4] abbreviates: 1 mM ATP, Table 5, read-out: GSK3α TR-FRET 1 mM ATP Average IC50.
Setting [5] is: 2 μM ATP, read-out: GSK3β TR-FRET 2 μM ATP GMean IC50.
[6] abbreviates: 4 μM ATP, read-out: GSK3α TR-FRET 4 μM ATP GMean IC50.

Molecules are shown by their SMILES. pIC50: −log10 of the molar value. Like-named read-outs stand apart in the source and are kept apart here. Bounds are passed on as bounds.

T2 sequence (P49840 whole entry): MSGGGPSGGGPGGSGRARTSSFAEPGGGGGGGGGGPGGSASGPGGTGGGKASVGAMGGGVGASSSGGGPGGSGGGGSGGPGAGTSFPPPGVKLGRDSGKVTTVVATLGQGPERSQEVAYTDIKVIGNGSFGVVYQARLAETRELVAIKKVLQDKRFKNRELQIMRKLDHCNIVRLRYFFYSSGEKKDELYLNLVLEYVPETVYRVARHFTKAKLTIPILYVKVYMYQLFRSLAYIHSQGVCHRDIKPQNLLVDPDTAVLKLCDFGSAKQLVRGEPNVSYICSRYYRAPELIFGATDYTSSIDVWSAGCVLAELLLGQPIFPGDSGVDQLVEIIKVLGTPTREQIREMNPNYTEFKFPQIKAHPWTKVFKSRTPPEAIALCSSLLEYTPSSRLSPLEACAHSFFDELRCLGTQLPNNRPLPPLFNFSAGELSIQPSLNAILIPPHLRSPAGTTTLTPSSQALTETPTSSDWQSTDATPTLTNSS
T1 sequence (P49841 whole entry): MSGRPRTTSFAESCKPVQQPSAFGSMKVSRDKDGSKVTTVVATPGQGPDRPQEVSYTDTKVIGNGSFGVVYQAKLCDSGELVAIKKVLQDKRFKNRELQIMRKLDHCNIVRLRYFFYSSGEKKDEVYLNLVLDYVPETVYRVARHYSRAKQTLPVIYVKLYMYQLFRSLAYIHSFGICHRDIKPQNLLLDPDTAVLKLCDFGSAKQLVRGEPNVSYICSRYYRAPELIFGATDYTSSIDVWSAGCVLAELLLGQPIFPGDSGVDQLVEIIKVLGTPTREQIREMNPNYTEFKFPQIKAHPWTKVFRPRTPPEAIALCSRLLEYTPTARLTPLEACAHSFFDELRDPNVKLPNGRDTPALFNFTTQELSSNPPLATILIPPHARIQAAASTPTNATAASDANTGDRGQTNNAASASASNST

In the case of `COc1cncc(F)c1-c1cccc(C2(C)C3=C(CC(C)(C)CC3=O)Nc3ncc(C(F)(F)F)cc32)c1` (single isomer, unassigned) [Compound 174B], the pIC50 – broadly, −log10 of the IC50, conventionally taken in molar units – in assay [1] (1 mM ATP, Table 3, read-out: GSK3b TR-FRET 1 mM ATP Average IC50) was 6.00 to 7.00; in assay [2] (1 mM ATP, Table 3, read-out: GSK3a TR-FRET 1 mM ATP Average IC50), 5.30 to 6.00.
For the compound `CC1(C)CC2=C(C(=O)[C@@H]1F)[C@@](C)(c1ccccc1)c1c(ncc(F)c1C#N)N2` (single isomer, unassigned) [Compound 616A], the pIC50 in assay [1] (setting [3]) and in assay [2] (setting [4]) was 6.00 to 7.00 in each case.
As for `CC1(C)CC2=C(C(=O)[C@@H]1F)[C@](C)(c1ccccc1)c1c(ncc(F)c1C#N)N2` (single isomer, unassigned) [Compound 616B], the pIC50 in assay [1] (setting [3]) and in assay [2] (setting [4]) was 6.00 to 7.00 throughout.
`CC1(C)CC2=C(C(=O)[C@H]1F)[C@@](C)(c1ccccc1)c1c(ncc(F)c1C#N)N2` (single isomer, unassigned) [Compound 616C]: the pIC50 in assay [1] (setting [3]) and in assay [2] (setting [4]) was 4.70 to 5.30 throughout.
For the compound `CC1(C)CC2=C(C(=O)[C@H]1F)[C@](C)(c1ccccc1)c1c(ncc(F)c1C#N)N2` (single isomer, unassigned) [Compound 616D], the pIC50 in assay [1] (setting [3]) and in assay [2] (setting [4]) was 4.70 to 5.30 each time.
Regarding `CC1(C)CC(=O)C2=C(Nc3ncc(F)c(C#N)c3[C@]2(C)c2ccccc2)[C@H]1F` (single isomer, unassigned) [Compound 617A], the pIC50 in assay [1] (setting [3]) and in assay [2] (setting [4]) was 4.70 to 5.30 in each case.
As for `CC1(C)CC(=O)C2=C(Nc3ncc(F)c(C#N)c3[C@@]2(C)c2ccccc2)[C@@H]1F` (single isomer, unassigned) [Compound 617B], the negative logarithm of the IC50 (pIC50) in assay [1] (setting [3]) and in assay [2] (setting [4]) was 6.00 to 7.00 each time.
With `CC1(C)CC(=O)C2=C(Nc3ncc(F)c(C#N)c3[C@]2(C)c2ccccc2)[C@@H]1F` (single isomer, unassigned) [Compound 617C], the pIC50 in assay [1] (setting [3]) and in assay [2] (setting [4]) was 4.70 to 5.30 throughout.
In the case of `CC1(C)CC(=O)C2=C(Nc3ncc(F)c(C#N)c3[C@@]2(C)c2ccccc2)[C@H]1F` (single isomer, unassigned) [Compound 617D], the negative-log IC50 (pIC50) in assay [1] (setting [3]) and in assay [2] (setting [4]) was 6.00 to 7.00 each time.
Consider `CC1(C)CC(=O)C2=C(Nc3ncc(C(F)F)c(C#N)c3[C@]2(C)c2ccccc2)[C@H]1F` (single isomer, unassigned) [Compound 633A], for which the figures for the pIC50 in assay [1] (setting [3]) and in assay [2] (setting [4]) were 5.30 to 6.00 and 4.70 to 5.30, respectively.
On the same counts, the results for `CC1(C)CC(=O)C2=C(Nc3ncc(C(F)F)c(C#N)c3[C@@]2(C)c2ccccc2)[C@@H]1F` (single isomer, unassigned) [Compound 633B] are 6.00 to 7.00 and 5.30 to 6.00.
Regarding `CC1(C)CC(=O)C2=C(Nc3ncc(C(F)F)c(C#N)c3[C@]2(C)c2ccccc2)[C@@H]1F` (single isomer, unassigned) [Compound 633C], the negative logarithm of the IC50 (pIC50) in assay [1] (setting [3]) and in assay [2] (setting [4]) was 4.70 to 5.30 each time.
Consider `CC1(C)CC(=O)C2=C(Nc3ncc(C(F)F)c(C#N)c3[C@@]2(C)c2ccccc2)[C@H]1F` (single isomer, unassigned) [Compound 633D], for which the negative logarithm of the IC50 (pIC50) in assay [1] (setting [3]) is 6.00 to 7.00; in assay [2] (setting [4]) it was 5.30 to 6.00.
With `CCC1(c2ccccc2)C2=C(CC(C)(C)NC2=O)Nc2ncccc21` (single isomer, unassigned) [Compound 1002A], the negative logarithm of the IC50 (pIC50) in assay [1] (setting [5]) and in assay [2] (setting [6]) was less than 5.30 throughout.
Take `CCC1(c2ccccc2)C2=C(CC(C)(C)NC2=O)Nc2ncccc21` (single isomer, unassigned) [Compound 1002B]: the pIC50 in assay [1] (setting [5]) and in assay [2] (setting [6]) was 5.30 to 6.00 throughout.
As to `CCC1(c2ccccc2)C2=C(Nc3ncccc31)C(F)C(C)(C)CC2=O` (single isomer, unassigned) [Compound 1006A], the pIC50 in assay [1] (setting [5]) and in assay [2] (setting [6]) was less than 5.30 in each case.
Turning to `CCC1(c2ccccc2)C2=C(Nc3ncccc31)C(F)C(C)(C)CC2=O` (single isomer, unassigned) [Compound 1006B], the negative-log IC50 (pIC50) in assay [1] (setting [5]) and in assay [2] (setting [6]) was less than 5.30 throughout.
For `CCC1(c2ccccc2)C2=C(CC(C)(C)NC2=O)Nc2ncc(F)cc21` (single isomer, unassigned) [Compound 1007A], the pIC50 in assay [1] (setting [5]) and in assay [2] (setting [6]) was less than 5.30 in each case.

(Values after patent US20260103465A1, “GLYCOGEN SYNTHASE KINASE 3 INHIBITORS AND USES THEREOF” (The Broad Institute, Inc., priority 2023, published 2026).)
